Patent US20030215465A1, “Use of conjugated acid derivatives” (priority 2002, published 2003)

Tested on: influenza virus
Experiment: resistance inducing effect of CLA against viral airway infections in rats exposed intranasally to influenza virus
Assay type: in vivo
Conditions: rats fed 1% CLA (FFA) for 5 weeks before intranasal influenza exposure; FIG. 1

Conjugated Linoleic Acid [CLA]
lungweight: increased
